Measured values reported in US20250154135A1, “M-CHOLINE RECEPTOR AGONIST COMPOUND, PREPARATION METHOD THEREFOR AND USE THEREOF” (NANJING GRITPHARMA CO., LTD., priority 2022, published 2025).
Values belong to the compound of their own block, whether it stands above or below them.

Columns and labels:
[1] = Determination of salt-forming ratios of pilocarpine salt formulations (HPLC); type: physicochemical; settings: for salt-forming ratios of the formulations: different conditions
Procedure: The determination of the salt-forming ratios of the pilocarpine salt formulations was performed using high-performance liquid chromatography with the following conditions: chromatographic column: C18 column; sample injection volume: 10 μL; mobile phase: K2HPO4 (adjusted to pH 6.50±0.1 with phosphoric acid)-methanol-acetonitrile (63:2:35); flow rate: 0.7 mL/min; column temperature: 30° C.; detection wavelength: 215 nm; […] determination was performed, and the salt-forming ratios were calculated according to the peak areas of free acid radicals and pilocarpine.
(§1) The samples were separately injected to determine the salt-forming ratios of different compound 1 formulations. Meanwhile, the salt-forming ratios of the compound 1 formulation solutions with different pH values under different conditions were determined using the above stability examination methods.
as §1, with “2” for “1”

[2] = system: rabbit pupil; test: Miosis effect of 0.915% compound solutions in rabbits (Test Example 4); type: in vivo; settings: at half of the concentration of the pilocarpine hydrochloride
Procedure: Each rabbit in each group was subjected to single eye drop administration in the left eye, with an administration volume of 100 μL. The pupil and iris diameters of the left eye of the rabbits were measured at time points of −0.5 h (i.e., half an hour before administration), 0.5 h, 3 h, and 4 h relative to administration (observation time points were extended if necessary), with the measurement performed 5 times for each rabbit at each time point. The entire measurement process was completed by the same person.
• Reagents: normal saline (specification: 500 mL: 4.5 g), purchased from Jiangxi Kelun Pharmaceutical Co., Ltd.; • compound 1 and compound 2 (from Nanjing Jiqun Pharmaceutical Technology Co., Ltd.); • 1) a compound 1 solution at a concentration of 0.915% prepared using normal saline; • 2) a compound 2 solution at a concentration of 0.915% prepared using normal saline.
The miosis effects of the 0.915% compound 1 solution and the 0.915% compound 2 solution were determined using the method in Test Example 2, and the determination results are shown in Tables 4-1 and 4-2 below.

[3] = Stability tests on compound starting materials (HPLC related substances); type: physicochemical; settings: for (Z-A) impurity A isopilocarpine / (Z-B) impurity B pilocarpic acid / (Z-C) impurity C isopilocarpic acid / Maximum single impurity / Total impurity: starting material
Procedure: Samples: compound 1, compound 2 and pilocarpine hydrochloride starting material solid particles.
High-temperature test: 1 g of each of compound 1, compound 2 and pilocarpine hydrochloride starting materials were taken and placed in an open container inside a constant temperature device at 40° C.; samples were taken at time points of day 0 and day 5, and then tested according to the key stability examination items. The stability of the active pharmaceutical ingredient itself and the trend of changes in stability under the conditions of influencing factor tests were observed.
Strong light irradiation test: 1 g of each of compound 1, compound 2 and pilocarpine hydrochloride starting materials were taken and placed in an open container inside a light irradiation box, with the illumination set at 4500 lx±500 lx; samples were taken at time points of day 0 and day 5, and then tested according to the key stability examination items.
High-humidity test: 1 g of each of compound 1, compound 2 and pilocarpine hydrochloride starting materials was taken and placed in an open container inside a constant humidity closed container at 25° C. and with a relative humidity of 75%±5%; samples were taken at day 0 and day 5, and then tested according to the requirements of the key stability examination items.
According to the records in the European Pharmacopoeia (EP), the key related substances to be examined for pilocarpine include: impurity A isopilocarpine (Z-A), impurity B pilocarpic acid (Z-B), and impurity C isopilocarpic acid (Z-C). The samples taken at different time points from the above high-temperature test, strong light irradiation test and high-humidity test were separately tested using high-performance liquid chromatography to observe the trend of changes in stability under the conditions of the influencing factor tests.
The related substances were determined according to the high-performance liquid chromatography (General Chapter 0512, Chinese Pharmacopoeia, Volume IV, 2020 Edition).
Test sample solution: an appropriate amount of each test sample was precisely weighed, dissolved in water, and diluted to prepare a solution containing 1 mg of test sample per 1 mL.
Chromatographic conditions: octadecyl bonded silica gel was used as a filler [kromasil 100-5-C18 column (4.0 mm×[…]) or a chromatographic column with equivalent performance], 0.679 g/L tetrabutylammonium dihydrogen phosphate-methanol-acetonitrile (885:55:60) (adjusted to pH 7.7 with dilute aqueous ammonia) was used as mobile phase A, and acetonitrile-water (80:20) was used as mobile phase B; gradient elution was performed according to Table 6-1, with a column temperature of 30° C., a flow rate of 1.0 mL/min, a detection wavelength of 220 nm, and a sample injection volume of 20 μL.

[4] = formulation pH 4.8, 40° C./10 d
[5] = formulation pH 4.8, 60° C./10 d
[6] = formulation pH 4.8, Light irradiation/5 d
[7] = formulation pH 4.8, Light irradiation/10 d
[8] = 40° C. and high light irradiation

salt-forming ratios of the formulations [1]: substantially stable
Salt-forming ratio ([1]; formulation pH 3.6, 0 d): 1.19
Salt-forming ratio ([1]; formulation pH 3.6, 40° C./5 d): 1.08
Salt-forming ratio ([1]; formulation pH 3.6, 40° C./10 d): 1.09
Salt-forming ratio ([1]; formulation pH 3.6, 60° C./5 d): 1.15
Salt-forming ratio ([1]; formulation pH 3.6, 60° C./10 d): 1.24
Salt-forming ratio ([1]; formulation pH 3.6, Light irradiation/5 d): 1.06
Salt-forming ratio ([1]; formulation pH 3.6, Light irradiation/10 d): 1.06
Salt-forming ratio ([1]; formulation pH 4.1, 0 d): 1.03
Salt-forming ratio ([1]; formulation pH 4.1, 40° C./5 d): 1.06
Salt-forming ratio ([1]; formulation pH 4.1, 40° C./10 d): 1.06
Salt-forming ratio ([1]; formulation pH 4.1, 60° C./5 d): 1.09
Salt-forming ratio ([1]; formulation pH 4.1, 60° C./10 d): 1.10
Salt-forming ratio ([1]; formulation pH 4.1, Light irradiation/5 d): 1.04
Salt-forming ratio ([1]; formulation pH 4.1, Light irradiation/10 d): 1.04
Salt-forming ratio ([1]; formulation pH 4.7, 0 d): 1.03
Salt-forming ratio ([1]; formulation pH 4.7, 40° C./5 d): 1.04
Salt-forming ratio ([1]; formulation pH 4.7, 40° C./10 d): 1.02
Salt-forming ratio ([1]; formulation pH 4.7, 60° C./5 d): 1.02
Salt-forming ratio ([1]; formulation pH 4.7, 60° C./10 d): 1.00
Salt-forming ratio ([1]; formulation pH 4.7, Light irradiation/5 d): 1.03
Salt-forming ratio ([1]; formulation pH 4.7, Light irradiation/10 d): 1.03
Salt-forming ratio ([1]; formulation pH 4.8, 0 d): 1.02
Salt-forming ratio ([1]; formulation pH 4.8, 40° C./5 d): 1.04
Salt-forming ratio [1, 4]: 1.02
Salt-forming ratio ([1]; formulation pH 4.8, 60° C./5 d): 0.99
Salt-forming ratio [1, 5]: 0.97
Salt-forming ratio [1, 6]: 1.03
Salt-forming ratio [1, 7]: 1.02
Salt-forming ratio ([1]; formulation pH 5.1, 0 d): 1.02
Salt-forming ratio ([1]; formulation pH 5.1, 40° C./5 d): 1.03
Salt-forming ratio ([1]; formulation pH 5.1, 40° C./10 d): 1.01
Salt-forming ratio ([1]; formulation pH 5.1, 60° C./5 d): 0.97
Salt-forming ratio ([1]; formulation pH 5.1, 60° C./10 d): 0.92
Salt-forming ratio ([1]; formulation pH 5.1, Light irradiation/5 d): 1.03
Salt-forming ratio ([1]; formulation pH 5.1, Light irradiation/10 d): 1.02
Salt-forming ratio ([1]; formulation pH 5.6, 0 d): 1.02
Salt-forming ratio ([1]; formulation pH 5.6, 40° C./5 d): 1.01
Salt-forming ratio ([1]; formulation pH 5.6, 40° C./10 d): 0.98
Salt-forming ratio ([1]; formulation pH 5.6, 60° C./5 d): 0.91
Salt-forming ratio ([1]; formulation pH 5.6, 60° C./10 d): 0.85
Salt-forming ratio ([1]; formulation pH 5.6, Light irradiation/5 d): 1.02
Salt-forming ratio ([1]; formulation pH 5.6, Light irradiation/10 d): 1.01
(Z-A) impurity A isopilocarpine ([3]; 40° C.-5 days): 0.365%
(Z-B) impurity B pilocarpic acid ([3]; 40° C.-5 days): 0%
(Z-C) impurity C isopilocarpic acid ([3]; 40° C.-5 days): 0%
Maximum single impurity ([3]; 40° C.-5 days): 0%
Total impurity ([3]; 40° C.-5 days): 0.365%
(Z-A) impurity A isopilocarpine ([3]; Day 0): 0.328%
(Z-B) impurity B pilocarpic acid ([3]; Day 0): 0%
(Z-C) impurity C isopilocarpic acid ([3]; Day 0): 0%
Maximum single impurity ([3]; Day 0): 0%
Total impurity ([3]; Day 0): 0.328%
(Z-A) impurity A isopilocarpine ([3]; Light-5 days (4500 lx)): 0.329%
(Z-B) impurity B pilocarpic acid ([3]; Light-5 days (4500 lx)): 0%
(Z-C) impurity C isopilocarpic acid ([3]; Light-5 days (4500 lx)): 0%
Maximum single impurity ([3]; Light-5 days (4500 lx)): 0%
Total impurity ([3]; Light-5 days (4500 lx)): 0.329%
(Z-A) impurity A isopilocarpine ([3]; RH 75%-5 days, 25° C.): 0.310%
(Z-B) impurity B pilocarpic acid ([3]; RH 75%-5 days, 25° C.): 0%
(Z-C) impurity C isopilocarpic acid ([3]; RH 75%-5 days, 25° C.): 0%
Maximum single impurity ([3]; RH 75%-5 days, 25° C.): 0%
Total impurity ([3]; RH 75%-5 days, 25° C.): 0.331%
SMILES: CC[C@@H]1C(=O)OC[C@@H]1Cc1cncn1C [Compound 1]
miosis effect compared to pilocarpine hydrochloride [2]: comparable to the effect of pilocarpine hydrochloride
impurity increasing rate compared to pilocarpine hydrochloride starting material [3, 8]: comparable to those of the pilocarpine hydrochloride starting material
impurity increasing rate compared to pilocarpine hydrochloride starting material ([3]; 5 days, high humidity (RH 75%)): significantly slower than those of the pilocarpine hydrochloride

salt-forming ratios of the formulations [1]: substantially stable
Salt-forming ratio ([1]; formulation pH 4.3, 0 d): 1.25
Salt-forming ratio ([1]; formulation pH 4.3, 40° C./5 d): 1.14
Salt-forming ratio ([1]; formulation pH 4.3, 40° C./10 d): 1.15
Salt-forming ratio ([1]; formulation pH 4.3, 60° C./5 d): 1.17
Salt-forming ratio ([1]; formulation pH 4.3, 60° C./10 d): 1.23
Salt-forming ratio ([1]; formulation pH 4.3, Light irradiation/5 d): 1.12
Salt-forming ratio ([1]; formulation pH 4.3, Light irradiation/10 d): 1.13
Salt-forming ratio ([1]; formulation pH 4.5, 0 d): 1.00
Salt-forming ratio ([1]; formulation pH 4.5, 40° C./5 d): 1.02
Salt-forming ratio ([1]; formulation pH 4.5, 40° C./10 d): 1.01
Salt-forming ratio ([1]; formulation pH 4.5, 60° C./5 d): 1.02
Salt-forming ratio ([1]; formulation pH 4.5, 60° C./10 d): 1.01
Salt-forming ratio ([1]; formulation pH 4.5, Light irradiation/5 d): 1.01
Salt-forming ratio ([1]; formulation pH 4.5, Light irradiation/10 d): 1.01
Salt-forming ratio ([1]; formulation pH 4.8, 0 d): 1.00
Salt-forming ratio ([1]; formulation pH 4.8, 40° C./5 d): 1.01
Salt-forming ratio [1, 4]: 1.00
Salt-forming ratio ([1]; formulation pH 4.8, 60° C./5 d): 0.98
Salt-forming ratio [1, 5]: 0.96
Salt-forming ratio [1, 6]: 1.01
Salt-forming ratio [1, 7]: 1.01
Salt-forming ratio ([1]; formulation pH 5.0, 0 d): 1.00
Salt-forming ratio ([1]; formulation pH 5.0, 40° C./5 d): 1.00
Salt-forming ratio ([1]; formulation pH 5.0, 40° C./10 d): 0.99
Salt-forming ratio ([1]; formulation pH 5.0, 60° C./5 d): 0.95
Salt-forming ratio ([1]; formulation pH 5.0, 60° C./10 d): 0.92
Salt-forming ratio ([1]; formulation pH 5.0, Light irradiation/5 d): 1.00
Salt-forming ratio ([1]; formulation pH 5.0, Light irradiation/10 d): 1.00
Salt-forming ratio ([1]; formulation pH 5.5, 0 d): 0.99
Salt-forming ratio ([1]; formulation pH 5.5, 40° C./5 d): 0.98
Salt-forming ratio ([1]; formulation pH 5.5, 40° C./10 d): 0.97
Salt-forming ratio ([1]; formulation pH 5.5, 60° C./5 d): 0.90
Salt-forming ratio ([1]; formulation pH 5.5, 60° C./10 d): 0.85
Salt-forming ratio ([1]; formulation pH 5.5, Light irradiation/5 d): 1.00
Salt-forming ratio ([1]; formulation pH 5.5, Light irradiation/10 d): 1.00
(Z-A) impurity A isopilocarpine ([3]; 40° C.-5 days): 0.338%
(Z-B) impurity B pilocarpic acid ([3]; 40° C.-5 days): 0.072%
(Z-C) impurity C isopilocarpic acid ([3]; 40° C.-5 days): 0%
Maximum single impurity ([3]; 40° C.-5 days): 0%
Total impurity ([3]; 40° C.-5 days): 0.353%
(Z-A) impurity A isopilocarpine ([3]; Day 0): 0.307%
(Z-B) impurity B pilocarpic acid ([3]; Day 0): 0%
(Z-C) impurity C isopilocarpic acid ([3]; Day 0): 0%
Maximum single impurity ([3]; Day 0): 0%
Total impurity ([3]; Day 0): 0.307%
(Z-A) impurity A isopilocarpine ([3]; Light-5 days (4500 lx)): 0.333%
(Z-B) impurity B pilocarpic acid ([3]; Light-5 days (4500 lx)): 0.046%
(Z-C) impurity C isopilocarpic acid ([3]; Light-5 days (4500 lx)): 0%
Maximum single impurity ([3]; Light-5 days (4500 lx)): 0%
Total impurity ([3]; Light-5 days (4500 lx)): 0.339%
(Z-A) impurity A isopilocarpine ([3]; RH 75%-5 days, 25° C.): 0.311%
(Z-B) impurity B pilocarpic acid ([3]; RH 75%-5 days, 25° C.): 0.116%
(Z-C) impurity C isopilocarpic acid ([3]; RH 75%-5 days, 25° C.): 0%
Maximum single impurity ([3]; RH 75%-5 days, 25° C.): 0%
Total impurity ([3]; RH 75%-5 days, 25° C.): 0.427%
SMILES: CC[C@@H]1C(=O)OC[C@@H]1Cc1cncn1C [Compound 2]
miosis effect compared to pilocarpine hydrochloride [2]: comparable to the effect of pilocarpine hydrochloride
impurity increasing rate compared to pilocarpine hydrochloride starting material [3, 8]: comparable to those of the pilocarpine hydrochloride starting material
impurity increasing rate compared to pilocarpine hydrochloride starting material ([3]; 5 days, high humidity (RH 75%)): significantly slower than those of the pilocarpine hydrochloride
